Measurements as given in PubChem BioAssay AID1421 (Emory University Molecular Libraries Screening Center, 2008).

Molecular target: Prostaglandin E2 receptor EP2 subtype (Homo sapiens) (UniProt P43116)
Experiment: EP2 receptor modulators, dose response, cell-based, human EP2, PGE2 EC50 shift (AID 1421)
Conditions: EP2-expressing cells, PGE2 EC50 shift by compound; measured here: PGE2 EC50 at 6.7 uM compound

Sequence of Prostaglandin E2 receptor EP2 subtype (Homo sapiens) (P43116 whole entry, looked up): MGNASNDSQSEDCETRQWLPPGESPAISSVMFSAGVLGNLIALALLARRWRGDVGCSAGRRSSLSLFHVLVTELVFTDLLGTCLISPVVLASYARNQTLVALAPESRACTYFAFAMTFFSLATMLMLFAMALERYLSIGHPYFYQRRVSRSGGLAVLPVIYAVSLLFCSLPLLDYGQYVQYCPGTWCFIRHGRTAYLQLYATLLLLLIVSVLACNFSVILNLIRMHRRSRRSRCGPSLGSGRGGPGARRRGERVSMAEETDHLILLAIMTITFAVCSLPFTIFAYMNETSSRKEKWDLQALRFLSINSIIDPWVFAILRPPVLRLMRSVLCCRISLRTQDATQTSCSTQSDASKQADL

SMILES	PGE2 EC50 with compound [nM]
Cc1cc(C)n(-c2cc(-c3ccccc3)nc(C)n2)n1	2.6
Cc1sc(NC(=O)c2ccccc2F)c(CN2CCCCC2)c1C	1.09
COc1ccc(S(=O)(=O)N2c3cc(C)ccc3OCC2C(C)(C)C)cc1 (stereo not given)	0.75
O=C(N=C1SCC(=O)N1c1ccccc1Cl)c1ccccc1	1.03
CCCCn1c(=O)c2ccccc2c2ccccc2c1=O	0.96
C=CCSc1nc2ccccc2n1S(=O)(=O)c1ccc(C)cc1	0.95
CCOC(=O)c1c(N)sc(-c2ccccc2)c1C	2.56
Cc1cc2cc(CN(Cc3nnnn3C3CCCCC3)CC3CCCO3)c(=O)[nH]c2cc1C (stereo not given)	0.97
Clc1ccc(-c2nn3c(-c4ccccc4)nnc3s2)cc1	0.93
COC[C@H]1OC(=O)c2coc3c2[C@@]1(C)C1=C(C3=O)C2CCC(=O)[C@@]2(C)C[C@H]1OC(C)=O (stereo not given in full)	0.84
COc1ccccc1CNc1cc(C)ccc1C	0.77
Cc1ccc(Nc2nc(CSc3nnc(-c4ccccc4C)n3C)cs2)cc1	1.35
O=C(Cc1c(F)cccc1Cl)Nc1ccccc1N1CCCCC1	2.55
C(=N\N(Cc1ccccc1)c1ccccc1)/c1cccnc1	1.34
CCCSc1ncnc2sc(C)c(C)c12	0.89
CCCCNCC(=O)Nc1sc(C)c(C)c1C(=O)OCC	2.33
CCCCC(=O)Nc1sc2c(c1C(=O)OCC)CCC(C=O)=C2Cl	0.91
O=C(CSc1ncnc2c1oc1ccccc12)Nc1ccccc1C(F)(F)F	1.17
O=c1cc(N2CCCCC2)c(-c2ccccc2)nn1Cc1ccc(F)cc1	2.5
O=C(Nc1ccccc1-c1nc2ccccc2s1)c1ccc(Br)o1	1.02
C=CCSc1nccc(-c2cc(Cl)sc2Cl)n1	1.07
CCN(CC)C(=O)c1nn(-c2ccccc2)c2c1C1CCC2(C)C1(C)C (stereo not given)	1.24
CCC(=O)Oc1ccc(C(CC)C(CC)c2ccc(OC(=O)CC)cc2)cc1 (stereo not given)	0.32
COC(=O)c1c(NC(=O)Cc2cccs2)sc(C)c1C	0.88
COc1ccc(-c2nc(NC(C)=O)sc2-c2ccccc2)cc1	1.01
CCOC(=O)c1oc2ccccc2c1NC(=O)c1ccccc1OC	1.25
CN(N=O)c1ccc(O)c(O)c1	1.26
Cc1cccc(CSc2ncnc3ccccc23)c1	0.87

Now from value to compound:

PGE2 EC50 with compound [nM]	SMILES
2.7	CCC1Oc2ccccc2N(Cc2ccccc2C)C1=O (stereo not given)
1.85	CCC(C)(C)n1nnnc1C(c1ccncc1)N1CCC(Cc2ccccc2)CC1 (stereo not given)
1.44	COCCn1c(SC(C(=O)Nc2cc(C)ccc2OC)c2ccccc2)nnc1-c1ccc(Cl)cc1 (stereo not given)
2.5	COc1cc2c(cc1OC)-c1cc(Nc3ccc4c(c3)OCCO4)nc(=O)n1CC2
2.57	Cc1ccccc1Cn1c(-c2cncs2)nc2ccccc21
2.93	C=CCC1(C)C(=O)N(c2ccccc2)c2ccccc21 (stereo not given)
0.99	Cc1cc(C)c(S(=O)(=O)N(C2=NCCS2)S(=O)(=O)c2c(C)cc(C)cc2C)c(C)c1
0.97	CCOC(=O)c1cc(CC)sc1NC(=O)c1ccc2c(c1)OCCO2
1.1	COc1c(O)ccc(/C=C(\C#N)c2nc3ccccc3[nH]2)c1[N+](=O)[O-]
2.77	Cc1ccc(-n2c(=S)[nH]c3c(oc4ccccc43)c2=O)cc1
0.85	COC(=O)c1sc2nc(N3CCCCC3)c3c(c2c1N)CCCC3
0.87	Cc1ccc(-c2csc(N(CC3CCCO3)C(=O)c3ccco3)n2)cc1 (stereo not given)
0.94	Brc1ccccc1Cn1c(-c2cscn2)nc2ccccc21
1.07	CCOC(=O)c1ccccc1NC(=O)CSc1ccccc1
1.25	O=c1cc(N2CCCCC2)c(-c2ccccc2)nn1Cc1ccccc1
0.34	Cc1onc(-c2ccccc2)c1C(=O)N(Cc1ccco1)Cc1cccs1

PGE2 EC50 with compound [nM]	SMILES
1.04	CCOc1ccc(-c2nn3c(-c4ccccc4)nnc3s2)cc1
1.42	COC(=O)c1sccc1NC(=O)c1cccc(OC)c1
1.19	Fc1ccc(C(c2ccc(F)cc2)N2CCN(C/C=C/c3ccccc3)CC2)cc1
1.09	CCOP(=O)(OCC)c1nc(-c2ccc(F)cc2)oc1NCc1ccccc1
0.49	Cc1ccc(-c2nc3ccccc3nc2Cl)cc1
0.62	CCOc1cccc(CNc2ccc(O)cc2)c1OCc1ccccc1Cl
1.01	Cc1ccc(S(=O)(=O)NCC(=O)OCN2C(=O)c3ccccc3C2=O)cc1
1.4	CC1(C)Cc2nc3nc(SCC(=O)Nc4ccccc4)nc(N)c3cc2CO1
0.89	O=S(=O)(c1ccc(F)cc1)c1snnc1-c1ccccc1
1.04	CCOC(=O)c1ccccc1NC(=O)COc1ccccc1
1.26	COc1ccc(S(=O)(=O)N(Cc2cccs2)C2CCCC2)cc1
1.83	C=CCn1c(CNC(=O)c2cccs2)nnc1SCC(=O)c1ccc(Br)cc1
1.15	Cc1nn2c(N3CCN(C(=O)c4ccco4)CC3)cc(C(C)(C)C)nc2c1-c1ccccc1
1.03	O=C(NCc1ccc(F)cc1)c1ccccc1OCc1ccccc1
2.56	CCOC(=O)CNC(=O)c1ccc2c(c1)OCCO2
0.88	CCCC(=O)O[C@H]1C[C@@H](C)N(C(=O)c2ccccc2)c2ccc(C)cc21
